Consider ten molecules from ChEMBL document CHEMBL1201862, “PubChem BioAssay data set” (2004).

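Exposure lasted 48 hours, with cells grown in 96-well plates and compounds tested at five concentrations. GI50 marks 50% less growth.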 Calls of active or inactive are those of the source. Cut-off read from the data, not from the text of the source: active = GI50 up to about 1.1 µM and inactive = higher. Some results are limits rather than exact numbers.

Some test systems named below: HCT-15; SNB-19; HL-60; NCI-H23; SK-MEL-2; T47D; HCT-116; MDA-MB-231; HOP-62; M14; UACC-62; BT-549; SK-MEL-28; RPMI-8226; NCI-H460; PC-3; HCC 2998; CCRF-CEM; OVCAR-5; U-251.
What all share (test): NCI-60 cell line screen, 48 h

With `Cc1ccc2c(c1)C=CC1(O2)N(c2ccccc2)C(=S)OC1(C)C` (stereo not given), the GI50 with HCT-15 was 46.2 µM; with SNB-19, > 100 µM (inactive); in the test on HL-60, 5.37 µM (inactive); in the test with NCI-H23, 35.4 µM (inactive); in the test on SK-MEL-2, 29 µM (inactive); in the test with T47D it was 3.86 µM (inactive). The GI50 is 21.5 µM (inactive) in the test on HCT-116; > 100 µM (inactive) in the test on MDA-MB-231; > 100 µM (inactive) with HOP-62; 43.8 µM (inactive) in the test with M14; 40.9 µM (inactive) in the test with UACC-62; > 100 µM (inactive) with BT-549. Further, the GI50 in the test on SK-MEL-28 is > 100 µM (inactive); in the test on RPMI-8226, 22.9 µM (inactive); in the test on NCI-H460, > 100 µM (inactive); in the test with PC-3, 9.27 µM (inactive); in the test on HCC 2998 it was 76.9 µM (inactive); with CCRF-CEM it was 53 µM (inactive). Also, the GI50 with OVCAR-5 is 33.7 µM (inactive); with U-251, 83.8 µM (inactive).
Turning to `CC(=O)O[C@H]1C(=O)[C@@]2(C)[C@H]([C@H](OC(=O)c3ccccc3)[C@]3(O)C[C@H](OC(=O)[C@H](O)[C@@H](NC(=O)c4ccoc4)c4ccccc4)C(C)=C1C3(C)C)[C@]1(OC(C)=O)CO[C@@H]1C[C@@H]2O`, the GI50 was 0.757 µM in the test with HCT-15; 0.0946 µM (active) in the test on SNB-19; 0.0136 µM (active) with HL-60; 0.0261 µM (active) with NCI-H23; 0.0225 µM (active) in the test with SK-MEL-2; 0.0307 µM (active) in the test on T47D. Further, the GI50 is 0.0147 µM (active) in the test on HCT-116; 0.0434 µM (active) in the test with MDA-MB-231; 0.212 µM (active) with HOP-62; 0.09 µM (active) in the test on M14; 0.0776 µM (active) in the test with UACC-62; < 0.01 µM (active) in the test with BT-549. For the same molecule, the GI50 with SK-MEL-28 is 0.0532 µM (active); with RPMI-8226 it was 0.00871 µM (active); in the test on NCI-H460 it was 0.023 µM (active); with PC-3, 0.0212 µM (active); in the test with HCC 2998, 0.0216 µM (active); with CCRF-CEM, 0.0379 µM (active). Also, the GI50 was 0.0256 µM (active) in the test on OVCAR-5 and 0.00791 µM (active) with U-251.
Take `O=C(Nc1nncs1)NS(=O)(=O)n1cnc2ccccc21`: the GI50 in the test on HCT-15 is more than 100 µM; in the test with SNB-19, > 100 µM (inactive); in the test on HL-60, > 100 µM (inactive); in the test with NCI-H23, > 100 µM (inactive); in the test with SK-MEL-2, > 100 µM (inactive); in the test with T47D, > 100 µM (inactive). Also, the GI50 in the test with HCT-116, with MDA-MB-231, in the test on HOP-62, with M14, in the test on UACC-62 and in the test with BT-549 was > 100 µM (inactive) in each case. In addition, the GI50 in the test with SK-MEL-28, with RPMI-8226, in the test on NCI-H460, with PC-3, with HCC 2998 and in the test on CCRF-CEM was > 100 µM (inactive) each time. Besides, the GI50 in the test on OVCAR-5 and in the test on U-251 was > 100 µM (inactive) each time.
Take `CC(=O)OC1=c2ccccc2=C(O)C2C1C=NN2C(C)=O` (stereo not given): the GI50 in the test on HCT-15 is more than 100 µM; in the test on SNB-19, > 100 µM (inactive); in the test with HL-60 it was > 100 µM (inactive); with NCI-H23, > 100 µM (inactive); with SK-MEL-2, > 100 µM (inactive); in the test on T47D, > 100 µM (inactive). Also, the GI50 with HCT-116, with MDA-MB-231, with HOP-62, in the test with M14, in the test on UACC-62 and in the test on BT-549 was > 100 µM (inactive) in each case. In addition, the GI50 in the test on SK-MEL-28, in the test with RPMI-8226, in the test on NCI-H460, with PC-3, in the test with HCC 2998 and with CCRF-CEM was > 100 µM (inactive) throughout. The GI50 in the test on OVCAR-5 and in the test on U-251 was > 100 µM (inactive) each time.
On to `CN(C)CCNS(=O)(=O)c1ccc(N)cc1`, for which the GI50 was more than 100 µM with HCT-15; > 100 µM (inactive) with SNB-19; > 100 µM (inactive) in the test with HL-60; > 100 µM (inactive) in the test with NCI-H23; 18 µM (inactive) with SK-MEL-2; > 100 µM (inactive) in the test with T47D. For the same molecule, the GI50 was > 100 µM (inactive) in the test with HCT-116; > 100 µM (inactive) in the test with MDA-MB-231; 18.5 µM (inactive) in the test on HOP-62; > 100 µM (inactive) in the test with M14; > 100 µM (inactive) with UACC-62; > 100 µM (inactive) with BT-549. Besides, the GI50 in the test with SK-MEL-28 was > 100 µM (inactive); in the test on RPMI-8226, > 100 µM (inactive); in the test with NCI-H460, > 100 µM (inactive); with PC-3, 19.9 µM (inactive); in the test on HCC 2998 it was > 100 µM (inactive); in the test with CCRF-CEM it was > 100 µM (inactive). The GI50 in the test with OVCAR-5 and with U-251 was > 100 µM (inactive) in each case.
For `CCOC(=O)C1(C(=O)OCC)[C@@H](c2ccccc2)C2=NO[C@@H]3CCC[C@H]1[C@H]23`, the GI50 was 56 µM in the test on HCT-15; > 100 µM (inactive) with SNB-19; 24.3 µM (inactive) in the test with HL-60; 42.5 µM (inactive) in the test with NCI-H23; 55.5 µM (inactive) in the test on SK-MEL-2; 20.8 µM (inactive) in the test on T47D. In addition, the GI50 in the test on HCT-116 was 45.5 µM (inactive); with MDA-MB-231 it was > 100 µM (inactive); in the test with HOP-62, 43.6 µM (inactive); in the test on M14 it was 31.9 µM (inactive); with UACC-62, 8.26 µM (inactive); with BT-549, 42.7 µM (inactive). In addition, the GI50 is > 100 µM (inactive) in the test on SK-MEL-28; 23.5 µM (inactive) with RPMI-8226; 57.7 µM (inactive) with NCI-H460; 60.1 µM (inactive) in the test with PC-3; 18 µM (inactive) in the test with HCC 2998; 23.8 µM (inactive) with CCRF-CEM. Besides, the GI50 in the test on OVCAR-5 was > 100 µM (inactive); in the test with U-251, 47.5 µM (inactive).
`O=C[C@@H](CO)O[C@H](C=O)c1c[nH]c(=O)[nH]c1=O`: the GI50 with HCT-15 is 57.8 µM; with SNB-19, 129 µM (inactive); in the test with HL-60, 22.3 µM (inactive); with NCI-H23, 69.3 µM (inactive); with SK-MEL-2, 100 µM (inactive); in the test with T47D, 73.6 µM (inactive). For the same molecule, the GI50 was 84.5 µM (inactive) in the test with HCT-116; 74.1 µM (inactive) in the test on MDA-MB-231; 59 µM (inactive) with HOP-62; 126 µM (inactive) in the test with M14; 72.8 µM (inactive) with UACC-62; 79.1 µM (inactive) with BT-549. In addition, the GI50 in the test on SK-MEL-28 is 85.7 µM (inactive); in the test on RPMI-8226, 53.8 µM (inactive); with NCI-H460 it was 105 µM (inactive); with PC-3, 89.1 µM (inactive); in the test on HCC 2998 it was 98.4 µM (inactive); in the test on CCRF-CEM, 34.9 µM (inactive). In addition, the GI50 in the test with OVCAR-5 is 131 µM (inactive); in the test on U-251 it was 143 µM (inactive).
For the molecule `COc1c(-c2nc3ccc(N4CCN(C)CC4)nc3[nH]2)cc(OC)c2c1nc(CO)n2C`, the GI50 in the test on HCT-15 is more than 100 µM; in the test on SNB-19, > 100 µM (inactive); with HL-60 it was 81.7 µM (inactive); in the test with NCI-H23, > 100 µM (inactive); in the test with SK-MEL-2, > 100 µM (inactive); in the test with T47D it was > 100 µM (inactive). Also, the GI50 with HCT-116, with MDA-MB-231, with HOP-62, in the test on M14, in the test on UACC-62 and with BT-549 was > 100 µM (inactive) in each case. Besides, the GI50 in the test with SK-MEL-28, in the test with RPMI-8226, with NCI-H460, in the test with PC-3, with HCC 2998 and with CCRF-CEM was > 100 µM (inactive) in each case. Also, the GI50 in the test on OVCAR-5 and in the test on U-251 was > 100 µM (inactive) each time.
With `COC12C=CC(CC1)C(C)(C)C2=O` (stereo not given), the GI50 with HCT-15 is more than 100 µM; in the test on SNB-19 it was > 100 µM (inactive); in the test on HL-60, > 100 µM (inactive); in the test on NCI-H23 it was > 100 µM (inactive); with SK-MEL-2, > 100 µM (inactive); in the test with T47D, > 100 µM (inactive). The GI50 in the test on HCT-116, in the test on MDA-MB-231, in the test on HOP-62, in the test with M14, in the test on UACC-62 and with BT-549 was > 100 µM (inactive) throughout. The GI50 in the test with SK-MEL-28, with RPMI-8226, in the test on NCI-H460, with PC-3, in the test on HCC 2998 and with CCRF-CEM was > 100 µM (inactive) in each case. The GI50 in the test on OVCAR-5 and in the test with U-251 was > 100 µM (inactive) throughout.
Turning to `CC(=O)Nc1ccc(C(=O)NN2C(=O)C(Cl)C2c2cc(Br)ccc2O)cc1` (stereo not given), the GI50 in the test with HCT-15 is 2.14 µM; with SNB-19 it was 7.62 µM (inactive); in the test with HL-60, 2.71 µM (inactive); with NCI-H23, 5.75 µM (inactive); in the test on SK-MEL-2, 4.86 µM (inactive); in the test with T47D, 4.16 µM (inactive). Also, the GI50 with HCT-116 is 3.69 µM (inactive); in the test with MDA-MB-231, 3.6 µM (inactive); in the test on HOP-62 it was 2.2 µM (inactive); with M14 it was 4.54 µM (inactive); in the test on UACC-62 it was 3.85 µM (inactive); in the test on BT-549 it was 14.8 µM (inactive). Besides, the GI50 in the test with SK-MEL-28 is 4.38 µM (inactive); in the test on RPMI-8226, 12.1 µM (inactive); with NCI-H460, 3.09 µM (inactive); with PC-3 it was 3.88 µM (inactive); with HCC 2998, 11.2 µM (inactive); with CCRF-CEM, 1.85 µM (inactive). The GI50 with OVCAR-5 was 19.2 µM (inactive); with U-251, 2.59 µM (inactive).
